Experimental data: patent publication US20220135591A1, “HETEROCYCLIC COMPOUNDS AS INHIBITORS OF MONOACYLGLYCEROL LIPASE (MAGL)” (Hoffmann-La Roche Inc., priority 2019, published 2022)

Molecular target: T1, MAGL (recombinant wild-type) (Homo sapiens, UniProt Q99685)
T1 sequence (Q99685 1-303): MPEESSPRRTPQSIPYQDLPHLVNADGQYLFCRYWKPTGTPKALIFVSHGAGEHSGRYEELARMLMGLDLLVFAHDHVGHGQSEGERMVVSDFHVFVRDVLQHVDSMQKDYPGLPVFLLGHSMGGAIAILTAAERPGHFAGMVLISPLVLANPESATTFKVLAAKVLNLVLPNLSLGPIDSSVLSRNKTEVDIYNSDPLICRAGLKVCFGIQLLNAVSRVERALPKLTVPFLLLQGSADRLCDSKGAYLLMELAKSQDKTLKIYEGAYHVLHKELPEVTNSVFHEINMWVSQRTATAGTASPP
Experiment: 4-NPA assay: MAGL inhibitory activity by hydrolysis of 4-nitrophenylacetate, absorbance at 405 nm
Format: biochemical
Settings: 4-NPA assay (values without footnote [b])
Procedure: Compounds were profiled for MAGL inhibitory activity by measuring the enzymatic activity of MAGL by following the hydrolysis of 4-nitrophenylacetate resulting in 4-nitrophenol, which absorbs at 405-412 nm (G. G. Muccioli, G. Labar, D. M. Lambert, Chem. Bio. Chem. 2008, 9, 2704-2710). This assay is hereinafter abbreviated “4-NPA assay”.
The assay was carried out in 384 well assay plates (black with clear bottom, non-binding surface treated, Corning Ref. 3655) in a total volume of 40 μL. Compound dilutions were made in 100% DMSO (VWR Chemicals 23500.297) in a polypropylene plate in 3-fold dilution steps to give a final concentration range in the assay from 25 μM to 1.7 nM. 1 μL compound dilutions (100% DMSO) were added to 19 μL MAGL (recombinant wild-type) in assay buffer (50 mM TRIS (GIBCO, 15567-027), 1 mM EDTA (Fluka, 03690-100 mL)). The plate was shaked for 1 min at 2000 rpm (Variomag Teleshake) and then incubated for 15 min at RT. To start the reaction, 20 μL 4-Nitrophenlyacetate (Sigma N-8130) in assay buffer with 6% EtOH was added. The final concentrations in the assay were 1 nM MAGL and 300 μM 4-Nitrophenylacetate. After shaking (1 min, 2000 rpm) and 5 min incubation at RT, the absorbance at 405 nm was measured for a first time (Molecular Devices, SpectraMax Paradigm). A second measurement was then done after incubation for 80 min at RT. From the two measurements, the slope was calculated by subtracting the first from the second measurement.

Row | IC50 [nM] | Compound
1 | 67 | Cc1ccc2oc(N3CCN(C(=O)c4ccc(-c5noc(C6(C)CC6)n5)cc4)CC3)nc2n1 [Example 51, [4-[5-(1-methylcyclopropyl)-1,2,4-oxadiazol-3-yl]phenyl]-[4-(5-methyloxazolo[4,5-b]pyridin-2-yl)piperazin-1-yl]methanone]
2 | 68 | CC(C)(C)c1nnc(-c2ccc(C(=O)N3CCN(c4nc5nc(Cl)ccc5o4)CC3)cc2)o1 [Example 30, [4-(5-tert-butyl-1,3,4-oxadiazol-2-yl)phenyl]-[4-(5-chlorooxazolo[4,5-b]pyridin-2-yl)piperazin-1-yl]methanone; 2,2,2-trifluoroacetic acid]

Molecular target: T2, MAGL (Homo sapiens, UniProt Q99685)
T2 sequence (Q99685 1-303): T1 sequence (Q99685 1-303)
Experiment: 2-AG assay: MAGL inhibitory activity by hydrolysis of 2-arachidonoylglycerol to arachidonic acid, mass spectrometry
Format: biochemical
Settings: 2-AG assay (values marked [b])
Procedure, shortened: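 Hydrolysis of 8 μM 2-arachidonoylglycerol by […] was run for 30 min at RT after a 15 min compound preincubation, in Tris/EDTA/Tween buffer. Test compounds spanned […]. The product was measured by online SPE-MS/MS (transitions 303.1→259.1 and 311.1→267.0), and activity was derived from the arachidonic acid/d8-arachidonic acid signal ratio.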

Row | IC50 [nM] | Compound
3 | 4 | CC(C)(C)Cn1nnc(-c2ccc(C(=O)N3CCN(c4nc5nc(Cl)ccc5o4)CC3)cc2F)n1 [Example 304, [4-(5-chlorooxazolo[4,5-b]pyridin-2-yl)piperazin-1-yl]-[4-[2-(2,2-dimethylpropyl)tetrazol-5-yl]-3-fluoro-phenyl]methanone]
4 | 2320 | Cc1ccc2oc(N3CCN(C(=O)c4ccc(-c5nnc(C(C)(C)C)n5C)cc4)CC3)nc2n1 [Example 77, [4-(5-tert-butyl-4-methyl-1,2,4-triazol-3-yl)phenyl]-[4-(5-methyloxazolo[4,5-b]pyridin-2-yl)piperazin-1-yl]methanone]
5 | 1540 | Cc1cc(C(=O)N2CCN(c3nc4nc(Cl)ccc4o3)CC2)cnc1OCC1(C#N)COC1 [Example 164, 3-(((5-(4-(5-chlorooxazolo[4,5-b]pyridin-2-yl)piperazine-1-carbonyl)-3-methylpyridin-2-yl)oxy)methyl)oxetane-3-carbonitrile]
6 | 472 | Cc1ccc2oc(N3CCN(C(=O)c4ccc(-c5cn(CC6(F)CC6)nn5)cc4)CC3)nc2n1 [Example 126, (4-(1-((1-fluorocyclopropyl)methyl)-1H-1,2,3-triazol-4-yl)phenyl)(4-(5-methyloxazolo[4,5-b]pyridin-2-yl)piperazin-1-yl)methanone]
7 | 3 | CC(C)(C)Cn1ncc(-c2c(F)cc(C(=O)N3CCN(c4nc5nc(Cl)ccc5o4)CC3)cc2F)n1 [Example 91, (4-(5-chlorooxazolo[4,5-b]pyridin-2-yl)piperazin-1-yl)(3,5-difluoro-4-(2-neopentyl-2H-1,2,3-triazol-4-yl)phenyl)methanone]
8 | 24 | Cc1ccc2oc(N3CCN(C(=O)c4ccc(-c5noc(C(C)(C)C)n5)c(Cl)c4)CC3)nc2n1 [Example 79, [4-(5-tert-butyl-1,2,4-oxadiazol-3-yl)-3-chloro-phenyl]-[4-(5-methyloxazolo[4,5-b]pyridin-2-yl)piperazin-1-yl]methanone]
9 | 48 | CC(C)(CF)n1cc(-c2ccc(C(=O)N3CCN(c4nc5nc(Cl)ccc5o4)CC3)cc2)nn1 [Example 134, (4-(5-chlorooxazolo[4,5-b]pyridin-2-yl)piperazin-1-yl)(4-(1-(1-fluoro-2-methylpropan-2-yl)-1H-1,2,3-triazol-4-yl)phenyl)methanone]
10 | 8 | Cc1ccc2oc(N3CCN(C(=O)c4cnc(-n5cc(C(C)(C)C)cn5)c(C)c4)CC3)nc2n1 [Example 130, [6-(4-tert-butylpyrazol-1-yl)-5-methylpyridin-3-yl]-[4-(5-methyl-[1,3]oxazolo[4,5-b]pyridin-2-yl)piperazin-1-yl]methanone]
11 | 36 | Cc1ccc2oc(N3CCN(C(=O)c4ccc(-c5ncn(C(C)(C)C)n5)c(F)c4)CC3)nc2n1 [Example 106, [4-(1-tert-butyl-1,2,4-triazol-3-yl)-3-fluorophenyl]-[4-(5-methyl-[1,3]oxazolo[4,5-b]pyridin-2-yl)piperazin-1-yl]methanone]
12 | 295 | COCC1(COc2ncc(C(=O)N3CCN(c4nc5nc(Cl)ccc5o4)CC3)cc2C)CC1 [Example 160, (4-(5-chlorooxazolo[4,5-b]pyridin-2-yl)piperazin-1-yl)(6-((1-(methoxymethyl)cyclopropyl)methoxy)-5-methylpyridin-3-yl)methanone]
13 | 8410 | CC(C)(C)Cn1nncc1-c1ncc(C(=O)N2CCN(c3nc4nc(Cl)ccc4o3)CC2)cc1F [Example 242, (4-(5-chlorooxazolo[4,5-b]pyridin-2-yl)piperazin-1-yl)(5-fluoro-6-(1-neopentyl-1H-1,2,3-triazol-5-yl)pyridin-3-yl)methanone]
14 | 11 | CC(C)(C)Cn1cc(-c2ncc(C(=O)N3CCN(c4nc5nc(Cl)ccc5o4)CC3)cc2C(F)(F)F)cn1 [Example 279, [4-(5-chlorooxazolo[4,5-b]pyridin-2-yl)piperazin-1-yl]-[6-[1-(2,2-dimethylpropyl)pyrazol-4-yl]-5-(trifluoromethyl)-3-pyridyl]methanone]
15 | 135 | Cc1cc(C(=O)N2CCN(c3nc4nc(Cl)ccc4o3)CC2)cnc1OCCC(F)(F)F [Example 173, (4-(5-chlorooxazolo[4,5-b]pyridin-2-yl)piperazin-1-yl)(5-methyl-6-(3,3,3-trifluoropropoxy)pyridin-3-yl)methanone]
16 | 20 | CC(C)(C)Cn1cnc(-c2ccc(C(=O)N3CCN(c4nc5nc(Cl)ccc5o4)CC3)cc2F)n1 [Example 293, [4-(5-chlorooxazolo[4,5-b]pyridin-2-yl)piperazin-1-yl]-[4-[1-(2,2-dimethylpropyl)-1,2,4-triazol-3-yl]-3-fluoro-phenyl]methanone]
17 | 35 | CC(C)(C#N)Cn1cc(-c2ccc(C(=O)N3CCN(c4nc5nc(Cl)ccc5o4)CC3)cc2)nn1 [Example 131, 3-[4-[4-[4-(5-chlorooxazolo[4,5-b]pyridin-2-yl)piperazine-1-carbonyl]phenyl]triazol-1-yl]-2,2-dimethyl-propanenitrile]
18 | 15 | CC(C)(C)n1cnc(-c2ccc(C(=O)N3CCN(c4nc5nc(Cl)ccc5o4)CC3)cc2F)n1 [Example 107, [4-(1-tert-butyl-1,2,4-triazol-3-yl)-3-fluorophenyl]-[4-(5-chloro-[1,3]oxazolo[4,5-b]pyridin-2-yl)piperazin-1-yl]methanone]
19 | 50 | Cc1ccc2oc(N3CCN(C(=O)c4cnc(-c5cn(CC(C)(C)C)nn5)c(F)c4)CC3)nc2n1 [Example 244, (5-fluoro-6-(1-neopentyl-1H-1,2,3-triazol-4-yl)pyridin-3-yl)(4-(5-methyloxazolo[4,5-b]pyridin-2-yl)piperazin-1-yl)methanone]
20 | 34 | Cc1ccc2oc(N3CCN(C(=O)c4ccc(-c5nnc(C(C)(C)C)o5)c(Cl)c4)CC3)nc2n1 [Example 117, (4-(5-(tert-butyl)-1,3,4-oxadiazol-2-yl)-3-chlorophenyl)(4-(5-methyloxazolo[4,5-b]pyridin-2-yl)piperazin-1-yl)methanone]
21 | 51 | Cc1ccc2oc(N3CCN(C(=O)c4cnc(-c5nnn(CC(C)(C)C)n5)c(C)c4)CC3)nc2n1 [Example 309, [6-[2-(2,2-dimethylpropyl)tetrazol-5-yl]-5-methyl-3-pyridyl]-[4-(5-methyloxazolo[4,5-b]pyridin-2-yl)piperazin-1-yl]methanone]
22 | 7 | Cc1cc(C(=O)N2CCN(c3nc4nc(Cl)ccc4o3)CC2)cnc1-c1cnn(CC(C)(C)C)c1 [Example 247, [4-(5-chloro-[1,3]oxazolo[4,5-b]pyridin-2-yl)piperazin-1-yl]-[6-[1-(2,2-dimethylpropyl)pyrazol-4-yl]-5-methylpyridin-3-yl]methanone]
23 | 15 | O=C(c1cnc(OCC2(C(F)(F)F)CC2)c(Cl)c1)N1CCN(c2nc3nc(Cl)ccc3o2)CC1 [Example 152, (5-chloro-6-((1-(trifluoromethyl)cyclopropyl)methoxy)pyridin-3-yl)(4-(5-chlorooxazolo[4,5-b]pyridin-2-yl)piperazin-1-yl)methanone]
24 | 46 | Cc1cc(C(=O)N2CCN(c3nc4nc(Cl)ccc4o3)CC2)cnc1-c1cnn(C(C)(C)C)c1 [Example 190, [6-(1-tert-butylpyrazol-4-yl)-5-methylpyridin-3-yl]-[4-(5-chloro-[1,3]oxazolo[4,5-b]pyridin-2-yl)piperazin-1-yl]methanone]
25 | 801 | CC(C)(C)c1nnc(-c2ncc(C(=O)N3CCN(c4nc5nc(Cl)ccc5o4)CC3)cc2F)o1 [Example 278, [6-(5-tert-butyl-1,3,4-oxadiazol-2-yl)-5-fluoro-3-pyridyl]-[4-(5-chlorooxazolo[4,5-b]pyridin-2-yl)piperazin-1-yl]methanone]
